Reference: ChEMBL document CHEMBL5108059, “Discovery of 2-Methyl-2-(4-(2-methyl-8-(1H-pyrrolo[2,3-b]pyridin-6-yl)-1H-naphtho[1,2-d]imidazol-1-yl)phenyl)propanenitrile as a Novel PI3K/mTOR Inhibitor with Enhanced Antitumor Efficacy In Vitro and In Vivo” (J Med Chem, 2022)
Calls of active or inactive are those of the source. No cut-off for these calls is given here.

How the values were obtained:
[1] = target: T1, Phosphatidylinositol 4,5-bisphosphate 3-kinase catalytic subunit alpha isoform (Homo sapiens, UniProt P42336); test: Inhibition of PI3Kalpha (unknown origin) using PIP2 as substrate incubated for 1 hr in presence of ATP by Kinase Glo luminescence assay
T1 sequence (P42336 whole entry, canonical isoform): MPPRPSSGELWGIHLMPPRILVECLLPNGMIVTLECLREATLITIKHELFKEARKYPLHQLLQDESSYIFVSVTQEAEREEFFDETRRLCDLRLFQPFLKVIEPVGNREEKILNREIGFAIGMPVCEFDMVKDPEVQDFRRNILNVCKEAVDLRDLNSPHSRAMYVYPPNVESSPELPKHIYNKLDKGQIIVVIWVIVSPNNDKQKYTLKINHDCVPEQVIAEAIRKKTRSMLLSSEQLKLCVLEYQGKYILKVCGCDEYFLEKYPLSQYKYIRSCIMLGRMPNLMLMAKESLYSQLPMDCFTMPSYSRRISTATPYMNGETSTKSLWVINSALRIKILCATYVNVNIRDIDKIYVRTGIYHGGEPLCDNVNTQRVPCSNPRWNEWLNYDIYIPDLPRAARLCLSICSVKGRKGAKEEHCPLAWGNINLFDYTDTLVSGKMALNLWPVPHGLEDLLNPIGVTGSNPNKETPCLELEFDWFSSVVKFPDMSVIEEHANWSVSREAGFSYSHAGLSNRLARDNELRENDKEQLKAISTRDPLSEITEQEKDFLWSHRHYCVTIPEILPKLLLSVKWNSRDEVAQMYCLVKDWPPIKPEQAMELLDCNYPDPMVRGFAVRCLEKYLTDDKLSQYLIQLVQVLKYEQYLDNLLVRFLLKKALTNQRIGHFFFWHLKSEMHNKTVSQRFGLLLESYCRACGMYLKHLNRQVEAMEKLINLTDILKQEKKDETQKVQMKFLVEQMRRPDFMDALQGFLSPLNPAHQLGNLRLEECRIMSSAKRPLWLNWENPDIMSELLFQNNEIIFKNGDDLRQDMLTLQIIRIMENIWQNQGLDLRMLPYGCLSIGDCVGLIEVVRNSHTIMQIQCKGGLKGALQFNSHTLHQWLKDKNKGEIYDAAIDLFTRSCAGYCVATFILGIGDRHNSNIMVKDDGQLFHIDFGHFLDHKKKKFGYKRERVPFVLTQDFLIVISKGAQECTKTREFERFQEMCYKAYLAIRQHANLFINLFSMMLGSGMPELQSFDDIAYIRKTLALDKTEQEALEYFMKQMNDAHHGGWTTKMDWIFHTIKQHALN

HeLa [2] = test: Induction of apoptosis in human HeLa cells assessed as viable cells at 1.25 uM incubated for 36 hrs by Annexin V-FITC/PI staining based flow cytometric analysis (reference value: 96.14 %); type: functional; details: read-out: Activity
HeLa [3] = test: Induction of apoptosis in human HeLa cells assessed as dead cells at 0.3125 uM incubated for 36 hrs by Annexin V-FITC/PI staining based flow cytometric analysis (reference value: 0.44 %); type: functional
HeLa [4] = test: Antitumor activity against human HeLa cells xenografted in BALB/c nude mouse assessed as tumor growth inhibition at 60 mg/kg, IG administered daily for 30 days and measured every 2 days relative to control; type: functional; details: po, 720 h, time 30 day, read-out: TGI
HeLa [5] = test: Induction of apoptosis in human HeLa cells assessed as early apoptotic cells at 0.15625 uM incubated for 36 hrs by Annexin V-FITC/PI staining based flow cytometric analysis (reference value: 2.02 %); type: functional; details: 0.1562 µM
[6] = Half life in Sprague-Dawley rat at 1 mg/kg, iv measured for 24 hrs by LC-MS/MS analysis; type: ADME, organism-based; details: in vivo
HeLa [7] = test: Inhibition of colony formation in human HeLa cells assessed as reduction in colony forming ability at 0.625 uM incubated for 15 days by crystal violet staining based analysis; type: functional; details: 360 h, time 15 day
Mus musculus [8] = test: In vivo inhibition of PI3K/mTOR signalling pathway in BALB/c nude mouse xenografted with human HeLa cells assessed as downregulation of Akt phosphorylation at Ser473 residue in tumor at 15 to 60 mg/kg, IG administered daily for 30 days; type: functional, organism-based; details: dose 15-60 mg/kg, time 30.0 day
[9] = Toxicity in BALB/c nude mouse xenografted with human HeLa cells assessed as reduction in body weight at 15 to 60 mg/kg, IG administered daily for 30 days and measured every 2 days; type: organism-based; details: in vivo, po, 720 h, dose 15-60 mg/kg, time 30 day
Mus musculus [10] = test: In vivo inhibition of PI3K/mTOR signalling pathway in BALB/c nude mouse xenografted with human HeLa cells assessed as downregulation of pS6 protein expression in tumor at 15 to 60 mg/kg, IG administered daily for 30 days; type: functional, organism-based; details: dose 15-60 mg/kg, time 30.0 day
SW-620 = test: Antitumor activity against human SW620 cells xenografted in BALB/c nude mouse assessed as tumor growth inhibition at 15 mg/kg, IG administered daily for 30 days and measured every 2 days relative to control; type: functional; details: SW-620, po, 720 h, time 30 day, read-out: TGI
[11] = Oral bioavailability in Sprague-Dawley rat at 10 mg/kg measured for 24 hrs by LC-MS/MS analysis; type: ADME, organism-based; details: in vivo
[12] = Half life in Sprague-Dawley rat at 10 mg/kg, po measured for 24 hrs by LC-MS/MS analysis; type: ADME, organism-based; details: in vivo
[13] = target: T2, Phosphatidylinositol 4,5-bisphosphate 3-kinase catalytic subunit delta isoform (Homo sapiens, UniProt O00329); test: Inhibition of PI3Kdelta (unknown origin) using PIP2 as substrate incubated for 2 hrs in presence of ATP by Kinase Glo luminescence assay
T2 sequence (O00329 whole entry): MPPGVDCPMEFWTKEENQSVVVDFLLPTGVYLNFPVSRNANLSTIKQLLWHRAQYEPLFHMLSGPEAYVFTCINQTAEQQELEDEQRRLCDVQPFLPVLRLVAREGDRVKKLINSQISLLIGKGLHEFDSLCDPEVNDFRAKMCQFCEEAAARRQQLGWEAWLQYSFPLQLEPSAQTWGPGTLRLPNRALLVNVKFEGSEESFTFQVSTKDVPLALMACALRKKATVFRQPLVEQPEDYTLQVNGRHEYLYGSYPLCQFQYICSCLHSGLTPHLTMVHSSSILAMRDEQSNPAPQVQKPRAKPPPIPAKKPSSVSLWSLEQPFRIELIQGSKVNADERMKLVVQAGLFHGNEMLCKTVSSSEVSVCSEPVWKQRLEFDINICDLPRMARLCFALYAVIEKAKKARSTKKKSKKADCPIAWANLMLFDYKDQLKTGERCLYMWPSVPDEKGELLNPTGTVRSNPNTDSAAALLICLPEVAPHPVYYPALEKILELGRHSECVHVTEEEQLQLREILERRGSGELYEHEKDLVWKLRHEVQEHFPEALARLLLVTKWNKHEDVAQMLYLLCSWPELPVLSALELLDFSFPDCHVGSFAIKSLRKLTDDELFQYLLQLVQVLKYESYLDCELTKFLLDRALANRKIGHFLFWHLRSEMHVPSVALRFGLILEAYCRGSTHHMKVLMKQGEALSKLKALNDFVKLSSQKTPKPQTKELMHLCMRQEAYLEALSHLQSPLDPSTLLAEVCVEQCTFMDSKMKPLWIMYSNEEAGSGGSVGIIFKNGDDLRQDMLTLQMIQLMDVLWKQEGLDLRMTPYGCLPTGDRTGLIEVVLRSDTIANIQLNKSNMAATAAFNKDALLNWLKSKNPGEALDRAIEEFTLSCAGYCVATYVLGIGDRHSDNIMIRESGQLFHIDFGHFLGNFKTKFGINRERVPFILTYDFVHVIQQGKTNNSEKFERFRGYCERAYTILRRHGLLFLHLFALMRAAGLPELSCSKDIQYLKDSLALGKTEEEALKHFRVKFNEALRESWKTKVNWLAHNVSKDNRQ

HeLa [14] = test: Induction of apoptosis in human HeLa cells assessed as viable cells at 0.15625 uM incubated for 36 hrs by Annexin V-FITC/PI staining based flow cytometric analysis (reference value: 96.14 %); type: functional; details: read-out: Activity
HeLa [15] = test: Induction of apoptosis in human HeLa cells assessed as viable cells at 0.3125 uM incubated for 36 hrs by Annexin V-FITC/PI staining based flow cytometric analysis (reference value: 96.14 %); type: functional; details: read-out: Activity
HeLa [16] = test: Induction of apoptosis in human HeLa cells assessed as late apoptotic cells at 0.15625 uM incubated for 36 hrs by Annexin V-FITC/PI staining based flow cytometric analysis (reference value: 1.4 %); type: functional; details: 0.1562 µM
[17] = target: T1, Phosphatidylinositol 4,5-bisphosphate 3-kinase catalytic subunit alpha isoform; test: Inhibition of PI3Kalpha (unknown origin) using L-alpha-phosphatidylinositol as substrate incubated for 60 mins in presence of ATP by Kinase Glo luminescence assay
HeLa [18] = test: Antitumor activity against human HeLa cells xenografted in BALB/c nude mouse assessed as tumor growth inhibition at 15 mg/kg, IG administered daily for 30 days and measured every 2 days relative to control; type: functional; details: po, 720 h, time 30 day, read-out: TGI
[19] = target: Phosphatidylinositol 4,5-bisphosphate 3-kinase catalytic subunit gamma isoform (Homo sapiens, UniProt P48736); test: Inhibition of PI3Kgamma (unknown origin) using PIP2 as substrate incubated for 2 hrs in presence of ATP by Kinase Glo luminescence assay
Chain of Phosphatidylinositol 4,5-bisphosphate 3-kinase catalytic subunit gamma isoform (P48736 whole entry, canonical isoform): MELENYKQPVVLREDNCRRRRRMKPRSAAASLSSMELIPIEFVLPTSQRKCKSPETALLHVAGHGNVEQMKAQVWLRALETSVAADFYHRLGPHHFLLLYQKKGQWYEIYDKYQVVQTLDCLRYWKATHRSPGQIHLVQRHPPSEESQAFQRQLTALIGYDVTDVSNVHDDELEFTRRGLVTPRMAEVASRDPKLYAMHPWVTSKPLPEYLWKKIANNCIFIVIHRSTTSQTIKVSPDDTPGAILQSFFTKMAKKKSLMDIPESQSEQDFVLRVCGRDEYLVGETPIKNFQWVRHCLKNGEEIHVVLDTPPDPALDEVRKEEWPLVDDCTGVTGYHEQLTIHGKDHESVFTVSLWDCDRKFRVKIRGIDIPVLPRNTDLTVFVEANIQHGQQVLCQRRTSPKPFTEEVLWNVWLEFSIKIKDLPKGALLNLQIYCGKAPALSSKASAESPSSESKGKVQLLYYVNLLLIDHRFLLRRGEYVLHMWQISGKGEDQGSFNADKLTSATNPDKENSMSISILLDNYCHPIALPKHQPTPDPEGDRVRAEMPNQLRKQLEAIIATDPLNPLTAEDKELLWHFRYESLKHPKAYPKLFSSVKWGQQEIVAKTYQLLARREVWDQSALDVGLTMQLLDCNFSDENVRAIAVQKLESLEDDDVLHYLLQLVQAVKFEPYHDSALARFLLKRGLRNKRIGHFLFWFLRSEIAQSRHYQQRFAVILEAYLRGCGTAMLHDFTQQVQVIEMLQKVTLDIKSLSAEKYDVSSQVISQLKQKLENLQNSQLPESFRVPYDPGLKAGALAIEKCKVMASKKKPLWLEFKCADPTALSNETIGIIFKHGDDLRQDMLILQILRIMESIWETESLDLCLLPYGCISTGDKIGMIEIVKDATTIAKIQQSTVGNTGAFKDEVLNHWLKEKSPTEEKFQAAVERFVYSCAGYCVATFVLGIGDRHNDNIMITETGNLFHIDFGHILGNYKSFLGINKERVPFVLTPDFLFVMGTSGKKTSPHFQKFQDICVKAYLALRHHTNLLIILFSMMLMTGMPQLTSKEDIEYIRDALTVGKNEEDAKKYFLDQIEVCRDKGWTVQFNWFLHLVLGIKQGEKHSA

HeLa [20] = test: Induction of apoptosis in human HeLa cells assessed as late apoptotic cells at 2.5 uM incubated for 36 hrs by Annexin V-FITC/PI staining based flow cytometric analysis (reference value: 1.4 %); type: functional

**Q.** Which IC50 [1] does the source give for Cc1nc2cnc3ccc(-c4cnc5[nH]ccc5c4)cc3c2n1-c1ccc(C(C)(C)C#N)nc1 here?
**A.** The IC50 was 3.5 nM.

**Q.** And the viability at 1.25 µM (HeLa [2])?
**A.** The viability at 1.25 µM was 41.2%.

**Q.** What about the Activity (HeLa [3]) of the same compound?
**A.** The Activity was 0.84%.

**Q.** And the inhibition in vivo at 60 mg/kg (HeLa [4])?
**A.** Its inhibition in vivo at 60 mg/kg is 80.2%.

**Q.** What about the Activity (HeLa [5]) of the same compound?
**A.** The Activity was 4.18%.

**Q.** And the half-life [6]?
**A.** Its half-life is 1.16 h.

**Q.** And the inhibition at 0.625 µM (HeLa [7])?
**A.** The inhibition at 0.625 µM was 100%.

**Q.** What about the inhibition (Mus musculus [8]) of the same compound?
**A.** Its inhibition is “Active”.

**Q.** And the Activity [9]?
**A.** The Activity was “Non-Toxic”.

**Q.** What about the inhibition (Mus musculus [10]) of the same compound?
**A.** The inhibition was “Active”.

**Q.** And the inhibition in vivo at 15 mg/kg (SW-620)?
**A.** Its inhibition in vivo at 15 mg/kg is 60.6%.

**Q.** What about the bioavailability [11] of the same compound?
**A.** Its bioavailability is 76.8%.

**Q.** And the t1/2 [12]?
**A.** The t1/2 was 2.6 h.

**Q.** And the IC50 [13]?
**A.** The IC50 was 4.6 nM.

**Q.** What about the viability at 0.1562 µM (HeLa [14]) of the same compound?
**A.** Its viability at 0.1562 µM is 93.5%.

**Q.** And the viability at 0.3125 µM (HeLa [15])?
**A.** Its viability at 0.3125 µM is 89.9%.

**Q.** What about the Activity (HeLa [16]) of the same compound?
**A.** The Activity was 1.92%.

**Q.** And the IC50 [17]?
**A.** The IC50 was 4 nM.

**Q.** What about the inhibition in vivo at 15 mg/kg (HeLa [18]) of the same compound?
**A.** The inhibition in vivo at 15 mg/kg was 60.8%.

**Q.** What about the IC50 [19] of the same compound?
**A.** Its IC50 is 79.3 nM.

**Q.** And the Activity (HeLa [20])?
**A.** Its Activity is 38.86%.
